# Measured values published in patent US20250288587A1, “Methods of Treating Fibrosis” (Athira Pharma, Inc., priority 2022, published 2025).
# Assays:
# MRC-5 cells = experiment: TGFβ-stimulated αSMA expression in MRC-5 cells (HTRF); format: cell-based; design: key to Significant reduction in αSMA via HTRF compared to TGFβ alone: NS = no statistically significant change in aSMA expression; + = p < 0.05; ++ = p < 0.01; +++ = p < 0.005; ++++ = p < 0.001; settings: for Significant reduction in αSMA via HTRF compared to TGFβ alone: TGFβ 1 ng/ml, HGF 0.01 ng/ml, 48 h
# Experimental: In this study, pulmonary-derived immortalized fibroblasts, MRC-5 cells, were cultured as a model of the early transition to fibrosis, and αSMA expression was measured using an immunodetection system driven by homogenous time-resolved fluorescence (HTRF) technology. This detection system produces a fluorescent signal in the presence of αSMA in cell lysates. Cells were grown to confluence in 96-well culture plates in complete media, and then transitioned to serum-free media for 2 hours. Next TGFβ (final 1 ng/ml in serum-free media) was added to the cells to stimulate the fibrotic transition. After 2 hours, media containing either HGF or HGF combined with one of the compounds was added to the cells. After incubation for 48 hours, cells were lysed and processed for αSMA HTRF to detect the levels of αSMA expression and compared to TGFβ-stimulated cultures. Statistical analysis consisted of 1-way ANOVA with a Dunnett's multiple comparison's post-test.
# CFA-stimulated rats [1] = experiment: CFA inflammatory pain model, thermal hyperalgesia (Hargreaves method); format: in vivo; design: key to Thermal Hyperalgesia, change in sensitivity compared to CFA alone: NS = no statistically significant change in sensitivity compared to CFA alone; + = statistically significant change in sensitivity compared to CFA alone, p < 0.05; settings: 0.025 mg/kg PO daily; Day 3, 1 h post-dose
# CFA-stimulated rats [2] = experiment: as above; format: in vivo; design: key to Thermal Hyperalgesia, change in sensitivity compared to CFA alone / Thermal Hyperalgesia, significant reduction in pain behavior vs CFA alone: NS = no statistically significant change in sensitivity compared to CFA alone; + = statistically significant change in sensitivity compared to CFA alone, p < 0.05
# Experimental: (§1) Response to peripheral inflammatory stimulus can be modeled by administering complete Freund's adjuvant (CFA), a suspension of desiccated mycobacterium in paraffin oil and mannide monooleate, by subcutaneous injection into the rat's footpad. The introduction of CFA to peripheral tissues leads to a rapid, sustained, inflammatory reaction in the treated tissue within 24 hours. Subcutaneous administration of CFA in the plantar region of the paw induces inflammatory pain behaviors that persist for at least 8 days. CFA treatment also leads to the accumulation of inflammatory cytokines in paw tissue at the site of injury, which, if unresolved, can lead to formation of fibrotic tissue. The extent of inflammatory response to CFA can be assessed by quantification of inflammatory cytokines in paw skin lysate, and inflammatory pain behaviors by mechanical allodynia (von Frey test) and thermal hyperalgesia (Hargreaves test).
# (§2) In one study, Compound 2a was tested for its ability to reduce inflammatory pain behaviors in the CFA inflammation model. On study day 0, […] of CFA was administered subcutaneously in the plantar of the right hind paw. Animals were treated daily with Compound 2a in solution via oral gavage (PO) at doses of 1, 0.1, and 0.025 mg/kg. Treatment began before CFA injection on study day −1 and continued through study day 8.
# Thermal hyperalgesia was measured using the Hargreaves method. A temperature ramp was applied to the right hind paw and the paw withdrawal latency (PWL) was recorded as a measure of sensitivity to thermal stimulation. […] Statistical analysis was performed using a 1-way ANOVA with Tukey post-test. A p-value below 0.05 was considered statistically significant.
# (§3) In another study, Compounds 1a, 5a, and 6a were similarly tested against CFA-induced inflammatory stimulation in the right hind foot for their ability to reduce pain behaviors. This study also included quantification of inflammatory cytokine expression in paw skin lysate. Inflammatory pain stimulation with CFA injection and assessment of mechanical and thermal pain behaviors were performed as described above, with the exception that only post-dose pain behavior testing is reported.
# (§4) Intraplantar CFA injection occurred at day 0. Treatment with Compounds 1a, 5a, and 6a occurred at days −2, 1, 3, and 7. At day 8, the rats were terminated and cytokine levels were measured in paw skin and plasma. Tissue from paw bone, joint, and muscle were obtained for H&E staining and analysis. Cytokine levels in test compound-treated animals were compared to CFA-stimulated animals. Analytes included interleukin 4 (IL-4), tumor necrosis factor alpha (TNF-α) and interferon gamma (IFN-γ). Statistical analysis consisted of 1-way ANOVA followed by Dunnett's multiple comparisons post-test. Mechanical allodynia and thermal hyperalgesia were tested 1 hour post-dosing on days 1, 3, and 7. PWT refers to […] paw withdrawal threshold where a higher value corresponds to a higher pain threshold. PWL refers to […] paw withdrawal latency where a higher value corresponds to a higher pain threshold.
# CFA-stimulated rats [3] = experiment: CFA inflammatory pain model, mechanical allodynia (von Frey test); format: in vivo; design: key to Mechanical Allodynia, change in sensitivity compared to CFA alone / Mechanical Allodynia, significant reduction in pain behavior vs CFA alone: NS = no statistically significant change in sensitivity compared to CFA alone; + = statistically significant change in sensitivity compared to CFA alone, p < 0.05
# Experimental: as §1, §2
# Mechanical allodynia was measured using the von Frey test. In this test, rats were placed on a wire mesh and a series of filaments designed to deliver probing force ranging from 4 to 26 grams were applied to the mid-plantar surface of the right hind paw. Animals indicated pain response by lifting the probed paw. The minimal force required to elicit the withdrawal response was recorded as the paw withdrawal threshold (PWT). Von Frey testing was performed 1 hour after Compound 2a dosing on study day 1, 3, and 7, and was also tested pre-dosing on day 7. Statistical analysis was performed using a 1-way ANOVA with Tukey post-test. A p-value below 0.05 was considered statistically significant. Control animals stimulated with CFA but treated with only vehicle had high sensitivity to mechanical stimulation compared to normal control animals.
# as §3, §4
# [4] = 0.025 mg/kg PO daily, Day 1, 1 h post-dose
# [5] = 0.025 mg/kg PO daily, Day 7 post-dose
# [6] = 0.025 mg/kg PO daily, Day 7 pre-dose
# [7] = 0.1 mg/kg PO daily, Day 1, 1 h post-dose
# [8] = 0.1 mg/kg PO daily, Day 3, 1 h post-dose
# [9] = 0.1 mg/kg PO daily, Day 7 post-dose
# [10] = 0.1 mg/kg PO daily, Day 7 pre-dose
# [11] = 1 mg/kg PO daily, Day 1, 1 h post-dose
# [12] = 1 mg/kg PO daily, Day 3, 1 h post-dose
# [13] = 1 mg/kg PO daily, Day 7 post-dose
# [14] = 1 mg/kg PO daily, Day 7 pre-dose
compound,measurement,setting,value
CCC(C)CN1CC2N(C(=O)c3ccc(OC(F)F)cc3)CCC(=O)N2[C@@H](C)C1=O (some centres unmarked) [Compound 2a],αSMA expression,"MRC-5 cells; 1 uM, combined with 0.01 ng/ml HGF",significantly reduced αSMA
same,Significant reduction in αSMA via HTRF compared to TGFβ alone,MRC-5 cells; test compound 1 nM,NS
same,Significant reduction in αSMA via HTRF compared to TGFβ alone,MRC-5 cells; test compound 1 μM,++++ (++++ = p < 0.001)
same,"Thermal Hyperalgesia, change in sensitivity compared to CFA alone",CFA-stimulated rats [1],NS
same,"Thermal Hyperalgesia, change in sensitivity compared to CFA alone",CFA-stimulated rats [2]; [4],NS
same,"Thermal Hyperalgesia, change in sensitivity compared to CFA alone",CFA-stimulated rats [2]; [5],NS
same,"Thermal Hyperalgesia, change in sensitivity compared to CFA alone",CFA-stimulated rats [2]; [6],NS
same,"Thermal Hyperalgesia, change in sensitivity compared to CFA alone",CFA-stimulated rats [2]; [7],NS
same,"Thermal Hyperalgesia, change in sensitivity compared to CFA alone",CFA-stimulated rats [2]; [8],NS
same,"Thermal Hyperalgesia, change in sensitivity compared to CFA alone",CFA-stimulated rats [2]; [9],NS
same,"Thermal Hyperalgesia, change in sensitivity compared to CFA alone",CFA-stimulated rats [2]; [10],NS
same,"Thermal Hyperalgesia, change in sensitivity compared to CFA alone",CFA-stimulated rats [2]; [11],NS
same,"Thermal Hyperalgesia, change in sensitivity compared to CFA alone",CFA-stimulated rats [2]; [12],"+ (+ = statistically significant change in sensitivity compared to CFA alone, p < 0.05)"
same,"Thermal Hyperalgesia, change in sensitivity compared to CFA alone",CFA-stimulated rats [2]; [13],NS
same,"Thermal Hyperalgesia, change in sensitivity compared to CFA alone",CFA-stimulated rats [2]; [14],"+ (+ = statistically significant change in sensitivity compared to CFA alone, p < 0.05)"
same,thermal sensitivity (paw withdrawal latency),"CFA-stimulated rats [2]; 1 mg/kg, day 3 and pre-dose testing on day 7",reduced thermal sensitivity
same,"Mechanical Allodynia, change in sensitivity compared to CFA alone",CFA-stimulated rats [3]; [4],NS
same,"Mechanical Allodynia, change in sensitivity compared to CFA alone","CFA-stimulated rats [3]; 0.025 mg/kg PO daily, Day 3, 1 h post-dose",NS
same,"Mechanical Allodynia, change in sensitivity compared to CFA alone",CFA-stimulated rats [3]; [5],NS
same,"Mechanical Allodynia, change in sensitivity compared to CFA alone",CFA-stimulated rats [3]; [6],NS
same,"Mechanical Allodynia, change in sensitivity compared to CFA alone",CFA-stimulated rats [3]; [7],NS
same,"Mechanical Allodynia, change in sensitivity compared to CFA alone",CFA-stimulated rats [3]; [8],NS
same,"Mechanical Allodynia, change in sensitivity compared to CFA alone",CFA-stimulated rats [3]; [9],NS
same,"Mechanical Allodynia, change in sensitivity compared to CFA alone",CFA-stimulated rats [3]; [10],NS
same,"Mechanical Allodynia, change in sensitivity compared to CFA alone",CFA-stimulated rats [3]; [11],NS
same,"Mechanical Allodynia, change in sensitivity compared to CFA alone",CFA-stimulated rats [3]; [12],NS
same,"Mechanical Allodynia, change in sensitivity compared to CFA alone",CFA-stimulated rats [3]; [13],"+ (+ = statistically significant change in sensitivity compared to CFA alone, p < 0.05)"
same,"Mechanical Allodynia, change in sensitivity compared to CFA alone",CFA-stimulated rats [3]; [14],NS
same,mechanical allodynia (paw withdrawal threshold),"CFA-stimulated rats [3]; 1 mg/kg, study day 7, post-dose testing",reduced mechanical allodynia
